Test results: patent publication US8017348B1, “Assay for Parkinson's Disease therapeutics” (Elan Pharma International Limited, priority 2005, dated 2011)
Like-named read-outs stand apart in the source and are kept apart here.

Legend:
Parkin = assay: GFPu assay in HEK293 cells transfected with wild type Parkin (aggresome formation / proteasome function); assay type: cell-based, human; conditions: for aggresome formation (qualitative, GFPu screen): LOPAC screen hits
Protocol: A summary of the finalized automation scheme is outlined in FIG. 12. Briefly, cells were manually transfected with Parkin using the Fugene Reagent (Roche) and then incubated for three hours at 37° C. […] Compounds were then added to the cell plate at a final concentration of 10 uM using the Multimek™ Automated Pipettor. Compounds were incubated with cells for 45 hours at 37° C. and then the media was gently aspirated with the Multimek. A mixture of 1 ug/ml Hoechst dye and 4% paraformaldehyde were then added to the cells for 40 minutes at room temperature using the Titertek Multidrop™ Lab System. Cell plates were subsequently washed using the Tecan PowerWasher and then read on the Cellomcis ArrayScan. A detailed protocol outlining this process step by step is shown in Example 8.
This example describes a protocol for the GFPu Assay in 96-well format. It will be appreciated that the protocol can be readily modified for other multi-well formats and that certain parameters can vary. […] Dose-response curves are generated using methods known in the art. Typically, serial 2-fold or 3-fold dilutions (usually in the range 10 uM to 50 pM) are tested.
1) HEK293 cells stably expressing GFP are cultured in DMEM containing 10% FBS, glutamine 2 mM and G418 sulfate at 600 μg/ml.
2) HEK 293 cells are harvested using PBS containing 5 mM EDTA. 180 μl of HEK293 cells at 67,000 cells/ml are then plated onto Costar PDL coated plates (#3667). After seeding cells on the plate, we let them sit for 30 minutes at room temperature in the tissue culture hood before placing them back into the incubator. This treatment may help reduce edge effects and is optional.
3) Incubate the plate overnight at 37° C./5% CO2 in the incubator.
4) A typical transfection cocktail is created as follows: Mix 50 ml of serum free DMEM with 1.087 ml of Fugene and wait 5 minutes at room temperature. Next add 375 μg of Parkin DNA or control vector, gently mix and incubate 35-45 minutes at room temperature.
5) Add 20 μl of transfection cocktail to each well of the plate and place back in the incubator for three hours at 37° C.
6) Add 20 μl of compound to all relevant wells. Final in-well concentration for compound is 10 μM. The DMSO concentration final in-well is 0.2%. Compound plates are diluted using serum free DMEM.
7) Plates are then incubated for 45 hours at 37° C. and 5% CO2.
8) Aspirate media out of wells.
9) Add […] a mixture containing 1 μg/ml Hoechst dye and 4% paraformaldehyde in 0.1M NaPhosphate buffer for 40 minutes at room temperature.
10) Wash with PBS containing calcium and magnesium and leave 200 μl in well.
11) Read on the ArrayScan using the Target Activation Bioapplication. […]
(§1) Dose response curves were generated by exposing cells to compounds at various concentrations. […] “Hill” refers to the Hill Slope.

NRDP1 = assay: GFPu assay selectivity screen, cells transfected with NRDP1; assay type: cell-based; conditions: for IC50: GFPu assay, NRDP1 transfected cells, 10 uM to about 78 nM, read-out: NRDP IC50
Source text: (§2) The first is the RING finger ligase NRDP1 as a molecule structurally and functionally similar to Parkin. The second is the Cystic Fibrosis Transmembrane Conductance Regulator (CFTR) as a molecule that is a twelve-pass membrane channel protein, and structurally not related to Parkin.
as §1

CFTR = assay: GFPu assay selectivity screen, cells transfected with CFTR; assay type: cell-based; conditions: 10 uM to about 78 nM
Source text: as §2, §1

HEK293 cells = assay: Cytotoxicity (cell count) in HEK293 cells; conditions: for cytotoxicity: HEK293 cells
Source text: In terms of charactering cytotoxicity, compounds were given a low rating if the cell count was >75% of control levels, a medium rating if the cell count was between 50 and 75% of control wells, and a high rating if the cell count was less than 50% of control levels.

aggresome formation = conditions: Johnston et al., 1998; cited from earlier work
[1] = test system: cAMP dependent protein kinase; conditions: at higher concentrations (25-50 uM); cited from earlier work
aldehyde dehydrogenase = conditions: at higher concentrations (25-50 uM); cited from earlier work
3-PI-dependent kinase 1 = molecular target: T1, 3-PI-dependent kinase 1 (Homo sapiens, UniProt O15530); conditions: at higher concentrations (25-50 uM); cited from earlier work
T1 sequence (O15530 1-556): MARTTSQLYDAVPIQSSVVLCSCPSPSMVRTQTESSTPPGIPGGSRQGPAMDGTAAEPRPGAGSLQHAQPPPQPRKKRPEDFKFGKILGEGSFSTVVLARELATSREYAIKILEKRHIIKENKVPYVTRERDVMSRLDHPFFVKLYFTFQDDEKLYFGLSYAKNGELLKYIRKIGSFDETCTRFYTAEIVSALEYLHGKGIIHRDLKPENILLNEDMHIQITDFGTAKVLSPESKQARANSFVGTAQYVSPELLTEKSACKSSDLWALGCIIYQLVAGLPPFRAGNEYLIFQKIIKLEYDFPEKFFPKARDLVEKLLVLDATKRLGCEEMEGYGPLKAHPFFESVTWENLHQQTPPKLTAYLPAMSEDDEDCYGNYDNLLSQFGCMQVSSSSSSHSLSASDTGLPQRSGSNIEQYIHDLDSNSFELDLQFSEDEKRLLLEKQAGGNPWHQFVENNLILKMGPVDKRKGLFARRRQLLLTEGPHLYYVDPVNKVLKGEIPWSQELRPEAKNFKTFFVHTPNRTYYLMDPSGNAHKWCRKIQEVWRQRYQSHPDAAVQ

[2] = Homo sapiens, HEK293, GFPu assay, Parkin transfected cells, eight 2-fold dilutions 10 uM to about 78 nM, read-out: Parkin IC50
[3] = Homo sapiens, Parkin expressing HEK293 cells, read-out: IC50 in the GFPu assay
[4] = Parkin expressing HEK293 cells, read-out: IC50 in the GFPu assay
[5] = dose response, eight 2-fold dilutions 10 uM to about 78 nM

| SMILES | IC50 (Parkin; [2]) [µM] | IC50 (Parkin; [3]) [µM] | IC50 (NRDP1) [µM] | IC50 (CFTR) [µM] | TC50 (HEK293 cells; human) [µM] | aggresome formation (qualitative, GFPu screen) (Parkin) | also measured |
| --- | --- | --- | --- | --- | --- | --- | --- |
| Nc1ncn([C@@H]2O[C@H](CO)[C@@H](O)[C@H]2O)c(=O)n1 [ELN476201, 5-azacytidine] | 5.36 | 5.36 | 5.81 | > 10 | > 10 |  |  |
| O=c1[nH]cc(F)c(=O)[nH]1 [ELN29019, 5-fluoruracil] |  |  | 1.6 | > 10 |  |  | IC50 (Parkin; [4]): 9 µM; TC50 (HEK293 cells): > 10 µM |
| CC[C@]1(O)C[C@H]2CN(CCc3c([nH]c4ccccc34)[C@@](C(=O)OC)(c3cc4c(cc3OC)N(C=O)[C@H]3[C@@](O)(C(=O)OC)[C@H](OC(C)=O)[C@]5(CC)C=CCN6CC[C@]43[C@@H]65)C2)C1 [ELN477063, vincristine] | < 0.078 |  | > 10 | > 10 | < 0.078 | inhibitors of aggresome formation |  |
| Cc1ccc(S(=O)(=O)N[C@@H](Cc2ccccc2)C(=O)CCl)cc1 [ELN477056, TPCK] |  |  | 5.47 | > 10 |  |  | IC50 (Parkin; [4]): 9.25 µM; TC50 (HEK293 cells; [5]): >10 |
| CN(Cc1cnc2nc(N)nc(N)c2n1)c1ccc(C(=O)N[C@@H](CCC(=O)O)C(=O)O)cc1 [ELN476809, methotrexate] | < 0.078 | < 0.078 | 0.156 | > 10 | > 10 |  |  |
| CC[C@]1(O)C[C@@H]2CN(CCc3c([nH]c4ccccc34)[C@@](C(=O)OC)(c3cc4c(cc3OC)N(C)[C@H]3[C@@](O)(C(=O)OC)[C@H](OC(C)=O)[C@]5(CC)C=CCN6CC[C@]43[C@@H]65)C2)C1 [vinblastine] |  |  |  |  |  |  | aggresome formation (literature) (aggresome formation): completely abrogated aggresome formation |
| COc1cc2c(c(OC)c1OC)-c1ccc(OC)c(=O)cc1[C@@H](NC(C)=O)CC2 [ELN476311, colchicine] |  |  |  |  |  | inhibitors of aggresome formation | TC50 (HEK293 cells; [5]): <0.078 |
| O=C(N[C@@H](Cc1ccccc1)C(=O)CCl)OCc1ccccc1 [ELN476309, ZPCK] |  |  | 0.26 | 3.88 |  |  | IC50 (Parkin; GFPu assay, Parkin transfected cells, eight 2-fold dilutions 10 uM to about 78 nM, read-out: Parkin IC50): 4.12 µM; IC50 (Parkin; [4]): 4.1 µM; TC50 (HEK293 cells): 10 µM |
| COC(=O)Nc1nc2ccc(C(=O)c3cccs3)cc2[nH]1 [ELN475312, nocodazol] | 1.07 |  | > 10 | > 10 | < 0.078 | inhibitors of aggresome formation |  |
| O=C(O)CCCc1ccc(N(CCCl)CCCl)cc1 [ELN29018, chlorambucil] | 7.25 |  |  | > 10 |  | decreased aggresome formation | NRDP % @ 10 (NRDP1; @ 10): 32% @ 10; cytotoxicity (HEK293 cells): did not exhibit much cytotoxicity; TC50 (HEK293 cells; [5]): >10 |
| COC(=O)Nc1nc2ccc(C(=O)c3cccs3)cc2[nH]1 [nocodazol] |  |  |  |  |  |  | aggresome formation (literature) (aggresome formation): completely abrogated aggresome formation |
| COc1cc2c(c(OC)c1OC)-c1ccc(OC)c(=O)cc1[C@@H](NC(C)=O)CC2 [colchicine] |  |  |  |  |  |  | aggresome formation (literature) (aggresome formation): completely abrogated aggresome formation |
| O=c1c(O)c(-c2cc(O)c(O)c(O)c2)oc2cc(O)cc(O)c12 [ELN476493, myricetin] | > 10 |  | > 10 | > 10 | > 10 |  | inhibition at 10 µM (Parkin; Homo sapiens, HEK293, at 10 μM, LOPAC screen): 59%; % inhibition upon dose-response curve follow-up (Parkin; dose-response curve follow-up, 40% inhibition threshold): < 40% |
| Cc1ccc(S(=O)(=O)N[C@@H](Cc2ccccc2)C(=O)CCl)cc1 [TPCK] |  |  |  |  |  |  | inhibition of cAMP dependent protein kinase [1]: inhibit; inhibition of aldehyde dehydrogenase (aldehyde dehydrogenase): inhibit; inhibition of 3-PI-dependent kinase 1 (3-PI-dependent kinase 1): inhibit |
| N[C@@H](Cc1ccc(N(CCCl)CCCl)cc1)C(=O)O [ELN476469, melphalan] | 6.06 |  | > 10 | > 10 |  | decreased aggresome formation | cytotoxicity (HEK293 cells): did not exhibit much cytotoxicity; TC50 (HEK293 cells; [5]): >10 |
| COC[C@H]1OC(=O)c2coc3c2[C@@]1(C)C1=C(C3=O)[C@@H]2CCC(=O)[C@@]2(C)C[C@H]1OC(C)=O [ELN476646, Wortmannin] | 0.75 | 0.75 | > 10 | > 10 | 1.9 |  |  |
| COc1cc([C@@H]2c3cc4c(cc3[C@H](O)[C@H]3COC(=O)[C@H]23)OCO4)cc(OC)c1OC [ELN476767, podophyllotoxin] | < 0.078 | < 0.078 | > 10 | > 10 |  | inhibitors of aggresome formation | TC50 (HEK293 cells; [5]): <0.078 |
| CC(=O)O[C@H]1C(=O)[C@@]2(C)[C@H]([C@H](OC(=O)c3ccccc3)[C@]3(O)C[C@H](OC(=O)[C@H](O)[C@@H](NC(=O)c4ccccc4)c4ccccc4)C(C)=C1C3(C)C)[C@]1(OC(C)=O)CO[C@@H]1C[C@@H]2O [ELN476780, taxol] | < 0.156 | < 0.078 | > 10 | > 10 | < 0.078 | inhibitors of aggresome formation |  |
| O=C1c2c(O)ccc(O)c2C(=O)c2c(NCCNCCO)ccc(NCCNCCO)c21 [ELN476491, mitoxantrone] | < 0.078 | < 0.078 | 1.5 | 1.58 | 6.53 |  |  |
| CC[C@]1(O)C[C@@H]2CN(CCc3c([nH]c4ccccc34)[C@@](C(=O)OC)(c3cc4c(cc3OC)N(C)[C@H]3[C@@](O)(C(=O)OC)[C@H](OC(C)=O)[C@]5(CC)C=CCN6CC[C@]43[C@@H]65)C2)C1 [ELN477062, vinblastine] | < 0.078 |  | > 10 | > 10 | < 0.078 | inhibitors of aggresome formation |  |
